EPA's ToxRefDB 2

Legend:
[1] = system: rat; conditions: Subchronic oral toxicity in rodents, wistar, Feed, dose end: 14 week, group: systemic
[2] = system: rat; conditions: Multigenerational reproductive toxicity study, wistar, Oral, Feed, dose end: 2 generation
[3] = system: dog; conditions: Chronic toxicity; beagle; Oral; Feed; dose end: 52 week; group: systemic; systemic / clinical chemistry / aminopyrine-n-demethylase / aminopyrine-n-demethylase + systemic / in life observation / body weight / body …
[4] = system: mouse; conditions: Carcinogenicity; b6c3f1; Oral; Feed; dose end: 104 week; group: systemic; systemic / in life observation / body weight / body weight + systemic / in life observation / body weight / body weight gain + systemic / in…
[5] = system: rabbit; conditions: Prenatal developmental toxicity study, himalayan, Oral, Gavage/Intubation, dose end: 28 GD
[6] = system: rabbit; conditions: Prenatal developmental toxicity study, new zealand white, Oral, Gavage/Intubation, dose end: 20 GD
[7] = system: dog; conditions: Chronic toxicity; beagle; Oral; [Not Specified]; dose end: 12 month; group: systemic; systemic / in life observation / body weight / body weight + systemic / in life observation / body weight / body weight gain + systemic / …
[8] = system: dog; conditions: Subchronic oral toxicity in nonrodent, beagle, Feed, dose end: 90 day, group: systemic, systemic / pathology microscopic / kidney / vacuolization
[9] = system: rat; conditions: Carcinogenicity; wistar; Oral; [Not Specified]; dose end: 24 month; group: systemic; systemic / in life observation / mortality / mortality
[10] = system: mouse; conditions: Carcinogenicity, b6c3f1, Oral, Feed, dose end: 24 month, group: systemic
[11] = system: rat; conditions: Chronic toxicity, wistar, Oral, Feed, dose end: 108 week, group: systemic
[12] = systemic / organ weight / spleen / absolute + systemic / organ weight / spleen / relative to body weight + systemic / clinical chemistry / …
[13] = group: offspring, systemic / in life observation / body weight / offspring (pup) weight + systemic / pathology gross / liver / irregular surface + systemic / …
[14] = group: developmental, developmental / developmental malformation / bone / incomplete ossification + systemic / in life observation / body weight / fetal weight
[15] = group: developmental, developmental / developmental malformation / bone / incomplete ossification + systemic / in life observation / body weight / fetal weight + …
[16] = group: maternal, systemic / in life observation / clinical signs / alopecia + systemic / in life observation / clinical signs / cold ears + systemic / in …
[17] = group: developmental, systemic / in life observation / body weight / fetal weight
[18] = group: maternal, reproductive / reproductive performance / aborted / aborted + systemic / in life observation / body weight / body weight gain
[19] = systemic / in life observation / body weight / body weight + systemic / in life observation / body weight / body weight gain + systemic / …
[20] = systemic / in life observation / body weight / body weight + systemic / clinical chemistry / calcium / calcium + systemic / clinical …

COc1nn(C(=O)[N-]S(=O)(=O)c2ccccc2OC(F)(F)F)c(=O)n1C.[Na+] [Flucarbazone-sodium]
LEL ([1]; systemic / organ weight / spleen / absolute + systemic / organ weight / spleen / relative to body weight): 73.5 mg/kg/day
NEL [1, 12]: 17.6 mg/kg/day
NOAEL [1, 12]: 73.5 mg/kg/day
LOAEL ([1]; systemic / organ weight / spleen / absolute + systemic / organ weight / spleen / relative to body weight + systemic / pathology microscopic…): 287 mg/kg/day
LEL [2, 13]: 1060 mg/kg/day
LOAEL [2, 13]: 1060 mg/kg/day
NEL [2, 13]: 346 mg/kg/day
NOAEL [2, 13]: 346 mg/kg/day
LOAEL ([2]; group: parental, systemic / organ weight / uterus / absolute): 991 mg/kg/day
NOAEL ([2]; group: parental, systemic / organ weight / uterus / absolute + systemic / in life observation / body weight / body weight + systemic / in life observation / …): 340 mg/kg/day
LEL ([2]; group: parental, systemic / pathology gross / intestine large / dilatation): 453 mg/kg/day
NEL ([2]; group: parental, systemic / pathology gross / intestine large / dilatation + systemic / in life observation / clinical signs / defecation + systemic / in …): 5.5 mg/kg/day
LEL [3]: 183 mg/kg/day
LOAEL [3]: 183 mg/kg/day
NEL [3]: 35.9 mg/kg/day
NOAEL [3]: 35.9 mg/kg/day
LEL [4]: 2070 mg/kg/day
LOAEL [4]: 2070 mg/kg/day
NEL [4]: 275 mg/kg/day
NOAEL [4]: 275 mg/kg/day
LEL [5, 14]: 500 mg/kg/day
LOAEL [5, 14]: 500 mg/kg/day
NEL [5, 15]: 300 mg/kg/day
NOAEL [5, 15]: 300 mg/kg/day
LEL [5, 16]: 300 mg/kg/day
LOAEL [5, 16]: 300 mg/kg/day
NEL [5, 16]: 100 mg/kg/day
NOAEL [5, 16]: 100 mg/kg/day

O=S(=O)(O)C(F)(F)C(F)(F)C(F)(F)C(F)(F)C(F)(F)C(F)(F)C(F)(F)C(F)(F)F [PFOS]
LEL [6, 17]: 3.75 mg/kg/day
LOAEL [6, 17]: > 3.75 mg/kg/day
NEL [6, 17]: 1 mg/kg/day
NOAEL [6, 17]: ≥ 3.75 mg/kg/day
LOAEL [6, 18]: > 2.5 mg/kg/day
NEL [6, 18]: 0.1 mg/kg/day
NOAEL [6, 18]: ≥ 2.5 mg/kg/day
LEL ([6]; group: maternal, systemic / in life observation / body weight / body weight gain): 1 mg/kg/day

Nc1cnn(-c2ccccc2)c(=O)c1Cl [Chloridazon]
LEL [7]: 186 mg/kg/day
LOAEL [7]: 186 mg/kg/day
NEL [7]: < 186 mg/kg/day
NOAEL [7]: < 186 mg/kg/day
LEL [8]: 133 mg/kg/day
LOAEL [8]: 133 mg/kg/day
NEL [8]: < 133 mg/kg/day
NOAEL [8]: < 133 mg/kg/day
LEL [9]: 150 mg/kg/day
LOAEL [9]: > 200 mg/kg/day
NEL [9]: < 150 mg/kg/day
NOAEL [9]: ≥ 200 mg/kg/day
LOAEL ([10]; systemic / in life observation / body weight / body weight + systemic / in life observation / body weight / body weight gain): 762 mg/kg/day
NEL [10, 19]: 28 mg/kg/day
NOAEL [10, 19]: 146 mg/kg/day
LEL ([10]; systemic / pathology microscopic / lung / adenoma): 146 mg/kg/day
LOAEL ([11]; systemic / in life observation / body weight / body weight): 60 mg/kg/day
LEL ([11]; systemic / in life observation / body weight / body weight + systemic / clinical chemistry / calcium / calcium): 60 mg/kg/day
NEL [11, 20]: 18 mg/kg/day
NOAEL [11, 20]: 18 mg/kg/day
